The data set can be described thus: Plasma pharmacokinetics and food effect, part C. Format: in vivo, human. The conditions noted are these: 45 mg/day; for AUC(0-t) / Cmax / Tmax / AUC(0-inf) / half-life / Vd/F: human, plasma, oral; for Cmax: n = 15, read-out: Cmax, GM (% GCV); for Tmax: n = 15, read-out: Median tmax (range); for AUC(0-inf): n = 15, read-out: AUCinf, GM (% GCV); for half-life: n = 15, read-out: Mean t½ (% CV) (converted); for Vd/F: n = 15, read-out: Vss/F, GM (% GCV). On the procedure: Response was assessed using Response Evaluation Criteria in Solid Tumors (RECIST) v1.1[54] in patients with solid tumors, International Working Group criteria in patients with DLBCL[55], and Response Assessment in Neuro-Oncology (RANO) criteria[56] in patients with CNS tumors (astrocytoma and glioblastoma). For patients with BCC, the response was assessed using a combination of radiological assessment of target lesions per RECIST v1.1, digital clinical photography assessed per World Health Organization (WHO) criteria, and punch biopsies to confirm CR. PK parameters assessed included Cmax, tmax, AUC, t½, apparent clearance (CL/F), and apparent volume of distribution (Vz/F).
Serial blood samples for PK and pharmacodynamic analyses were collected for each dosing schedule after the first and last doses in cycle 1. Additional blood samples for assessment of the food effect on trotabresib PK in part C were collected during cycle 2. The food effect–evaluable population comprised all patients with adequate PK data to allow calculation of trotabresib AUC from time 0 (day 1) to day 22 from both the fed and fasted treatment periods and who had completed a 4-h post-dose fast during the fasted cycle or consumed the entire high-fat, high-calorie meal during the fed cycle and had received all trotabresib doses during both treatment periods.

The source of these data is publication PMC10011554, “BET inhibitor trotabresib in heavily pretreated patients with solid tumors and diffuse large B-cell lymphomas” (Nature Communications, 2023).

The structures appear in SMILES notation. Where two headings read alike, the source gives them in different places.

Take `Cn1cc(-c2cc(S(C)(=O)=O)ccc2OCC2CC2)c2ccccc2c1=O` [trotabresib]: the “Clss/F, GM (% GCV)” value by setting is: (day 4, fasted, n = 15) 2.60 (25.89) L/h; (day 4, fed, n = 15) 2.65 (28.52) L/h. Moreover, under “day 4, fasted, n = 15”, the “Median tmax (range)” value is listed as 1.50 (1.00–3.00) h. The AUC(0-t) (cycle 1 day 1, fasted, n = 14, read-out: AUC0–24, GM (% GCV)) is 6650 ng·h/mL; the AUC(0-t) (day 4, fasted, n = 15, read-out: AUC0–24, GM (% GCV)) came to 17300 ng·h/mL; the AUC(0-t) (day 4, fasted, n = 15, read-out: AUClast, GM (% GCV)) came out at 65100 ng·h/mL; the AUC(0-t) (day 4, fed, n = 14, read-out: AUC0–24, GM (% GCV)) is 16800 ng·h/mL; the AUC(0-t) (day 4, fed, n = 15, read-out: AUClast, GM (% GCV)) is 65600 ng·h/mL. Also, the Cmax is, setting by setting: (cycle 1 day 1, fasted) 560 ng/mL; (day 4, fasted) 1120 ng/mL; (day 4, fed) 904 ng/mL. Also, the Tmax reads like this: (cycle 1 day 1, fasted) 1.55 h; (day 4, fed) 4 h. Besides, the AUC(0-inf) by setting is: (day 4, fasted) 66500 ng·h/mL; (day 4, fed) 67200 ng·h/mL. The half-life was 69.1 h (day 4, fasted) and 67.8 h (day 4, fed). In addition, the Vd/F came out at 235 L (day 4, fasted) and 228 L (day 4, fed).
